3 compounds from patent US8404640B2 (priority 2006, dated 2013) can be followed below.

Test [1] has as its system CXCR4-expressing U937 monocytic cells. Description: Leukocyte chemotaxis assay (Transwell, U937 monocytes over epithelial monolayers). The test is classed as cell-based, human. How it is done:
Leukocyte chemotaxis assay. HT29 or HCT116 cells were plated and grown to confluence in 24-well dishes. Cells were then serum starved for 2 days. Calcein-AM (Molecular Probes) loaded U937 monocytes (5×10^5) were plated to the upper well of a Transwell chemotaxis chamber (5 μm pore size, Corning Costar, Corning, N.Y.), with the serum-starved epithelial monolayers in the bottom chamber. U937-epithelial co-cultures were supplemented with the CXCR4 receptor antagonist AMD3100 (5 μg/ml) or remain untreated as a control. U937 cells were incubated without epithelial cells or, as a separate control, epithelial cells alone, were used to establish constitutive chemotaxis or auto-fluorescence respectively. U937 cells were incubated with epithelial cells for 3 hr and the number of migrated calcein-loaded monocytes in the bottom chamber quantified by fluorescence spectroscopy (Victor Wallac, Perkin Elmer).

The target of the next test is T1, Dnmt1 (Homo sapiens, UniProt P26358).
T1 construct: endogenous in cells; host or cells: HCT116 (ATCC CCL-247)
The test is described as follows: Immunoblot of extractable Dnmt1 in 5-aza-treated HCT116 cells. It is filed as cell-based. The note with it: increasing concentrations of 5-aza. From the text:
(§1) Human colorectal carcinoma cell lines. HT29 (HTB-38), HCT116 (CCL-247), Caco2 (HTB-37), T84 (CCL-248) colonic carcinoma cells were purchased from the American Type Culture Collection (ATCC, Rockville, Md.) and maintained as previously described (Smith, J. M., et al. (2005) Am. J. Physiol Gastrointest. Liver Physiol 288, 316-26; Dwinell, M. B., et al. (2001) Gastroenterology 120, 49-59). Dnmt1, Dnmt3b or Dnmt1/Dnmt3b double knockout HCT116 cells were the kind gift of Dr. Bert Vogelstein (John Hopkins University School of Medicine) and were maintained similarly to wild-type HCT116 cells. In some experiments, carcinoma cells were treated with 5-aza (EMD Biosciences, La Jolla, Calif.) every 24 hr for the indicated number of days.
Immunoblot analysis. For the detection of Dnmt1, Dnmt3b and actin, whole cell lysates were prepared as previously described (Smith, J. M., Johanesen, P. A., Wendt, M. K., Binion, D. G., and Dwinell, M. B. (2005). CXCL12 activation of CXCR4 regulates mucosal host defense through stimulation of epithelial cell migration and promotion of intestinal barrier integrity. Am. J. Physiol Gastrointest. Liver Physiol 288, 316-26), and 10 or 25 μg of protein size separated using reducing SDS-PAGE. Equal protein loading was confirmed by Coomassie blue staining. […]
On the technique in general: A western blot detects proteins with antibodies after separation by electrophoresis.

The test system of another test is CXCL12 mRNA expression. Description: RT-PCR analysis of CXCL12 and CXCR4 mRNA in 5-aza-treated colonic carcinoma cells. It is filed as cell-based, human. The note with it: for CXCL12 mRNA expression: indicated concentrations for five days.
Description: as §1
RT-PCR analysis. Total RNA was isolated from cultured cells and colonic crypt epithelium using TRIzol reagent (Invitrogen, Carlsbad, Calif.), DNase treated (Ambion, Austin, Tex.) and 2 μg of total RNA was converted to cDNA via reverse transcription using random priming in a 40 μl volume. CXCL12, CXCR4, and β-actin mRNA transcripts were amplified using previously described PCR primers and conditions (Heidemann, J., et al. (2004) Am. J. Physiol Gastrointest. Liver Physiol 286, G1059-G1068; Smith, J. M., et al. (2005) Am. J. Physiol Gastrointest. Liver Physiol 288, 316-26). Other PCR analyses were conducted using listed primer pairs and conditions (Table S1). […] in cDNA synthesis reactions as a negative control.

Test [2] has as its system CXCL12 protein expression. The test is described as follows: Immunofluorescence microscopy of CXCL12 protein in 5-aza-treated HCT116 cells. The note with it: 2.5 μM 5-aza, 3 days. The test is classed as cell-based, human. Here is the method: Immunofluorescence microscopy. HCT116 epithelial cells were plated to glass chamber slides and grown for 3-days in untreated or 5-aza containing media. Cells were stained with mouse mAb specific for CXCL12 (clone #79018.111, R&D Systems) or a nonspecific mouse IgG control antibody (BD Pharmingen, San Jose, Calif.). CXCL12 protein and IgG background staining was visualized using Alexa Fluor 594 conjugated goat anti-mouse antibody (Molecular Probes, Eugene, Oreg.). Nuclei were visualized with a DAPI counterstain.

In another test the test system is CXCL12 promoter. The test is described as follows: Methylation-specific PCR of the CXCL12 promoter in 5-aza-treated cells. The test is classed as cell-based, human.

T1 sequence (P26358 whole entry): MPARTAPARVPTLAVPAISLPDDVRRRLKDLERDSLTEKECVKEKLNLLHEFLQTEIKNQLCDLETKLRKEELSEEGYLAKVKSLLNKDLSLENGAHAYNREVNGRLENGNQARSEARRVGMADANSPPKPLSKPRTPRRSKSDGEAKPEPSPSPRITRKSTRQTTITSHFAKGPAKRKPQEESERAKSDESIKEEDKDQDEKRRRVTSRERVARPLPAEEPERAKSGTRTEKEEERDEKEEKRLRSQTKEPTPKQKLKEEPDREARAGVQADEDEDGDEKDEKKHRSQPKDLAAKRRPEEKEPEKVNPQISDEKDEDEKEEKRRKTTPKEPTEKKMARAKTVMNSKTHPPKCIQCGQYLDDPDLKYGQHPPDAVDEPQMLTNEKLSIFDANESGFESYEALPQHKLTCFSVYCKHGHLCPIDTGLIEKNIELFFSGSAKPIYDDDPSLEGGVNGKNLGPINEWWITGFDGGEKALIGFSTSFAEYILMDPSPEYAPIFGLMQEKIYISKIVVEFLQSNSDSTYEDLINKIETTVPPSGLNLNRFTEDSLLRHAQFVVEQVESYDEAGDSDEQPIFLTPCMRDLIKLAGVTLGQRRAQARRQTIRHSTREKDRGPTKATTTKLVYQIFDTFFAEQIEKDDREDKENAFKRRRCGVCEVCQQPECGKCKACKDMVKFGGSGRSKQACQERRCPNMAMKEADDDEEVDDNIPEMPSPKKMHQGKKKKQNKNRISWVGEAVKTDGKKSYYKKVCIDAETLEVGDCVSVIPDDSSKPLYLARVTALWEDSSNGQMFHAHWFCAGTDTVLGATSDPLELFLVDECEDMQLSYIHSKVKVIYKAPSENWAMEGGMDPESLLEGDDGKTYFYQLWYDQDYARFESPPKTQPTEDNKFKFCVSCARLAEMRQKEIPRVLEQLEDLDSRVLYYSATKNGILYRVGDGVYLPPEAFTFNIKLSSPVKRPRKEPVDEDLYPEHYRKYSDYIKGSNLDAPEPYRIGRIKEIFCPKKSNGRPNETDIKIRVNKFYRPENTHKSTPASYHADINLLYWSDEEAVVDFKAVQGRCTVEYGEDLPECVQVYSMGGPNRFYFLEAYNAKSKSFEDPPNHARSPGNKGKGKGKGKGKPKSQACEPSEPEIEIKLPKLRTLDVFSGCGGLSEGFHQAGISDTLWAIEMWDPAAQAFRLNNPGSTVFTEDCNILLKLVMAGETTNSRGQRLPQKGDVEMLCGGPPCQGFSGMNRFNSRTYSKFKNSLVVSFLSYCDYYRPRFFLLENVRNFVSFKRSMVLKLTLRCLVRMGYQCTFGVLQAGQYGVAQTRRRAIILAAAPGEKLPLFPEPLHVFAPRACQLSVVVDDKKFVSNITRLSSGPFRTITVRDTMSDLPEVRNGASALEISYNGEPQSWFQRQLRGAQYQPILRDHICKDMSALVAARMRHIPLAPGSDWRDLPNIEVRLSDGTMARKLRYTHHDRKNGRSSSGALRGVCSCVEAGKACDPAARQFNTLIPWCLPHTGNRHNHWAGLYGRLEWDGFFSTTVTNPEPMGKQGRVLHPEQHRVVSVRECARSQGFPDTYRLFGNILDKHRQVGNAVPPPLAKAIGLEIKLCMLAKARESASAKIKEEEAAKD
Description for CXCL12 promoter: Methylation Specific PCR and Bisulphite Sequencing PCR. Genomic DNA from cell lines and colonic crypt preparations was isolated using the Genomic DNA wizard kit (Promega, Madison, Wis.) or TRIzol according to the manufacturer's instructions. […] DNA (2 μg) was denatured in 0.3M NaOH at 42° C. for 20 min in a 111 μl reaction volume. To this 1.2 ml of sodium bisulphite solution (4.5M NaHSO3, 0.02M hydroquinone, and pH 5.0) was added and incubated 16 hrs at 55° C. This reaction was desalted using DNA Purification Wizard (Promega) and the DNA was desulfonated in 0.3M NaOH at 37° C. for 20 min. The converted DNA was precipitated at −20° C., overnight in 75% ethanol containing 0.7M ammonium acetate and 0.05 mg/ml of glycogen, reconstituted in 50 μl of water, and 4.0 μl used in each 50 μl PCR reaction using 0.5 μM of specific MSP primers (Table S1).

Turning to `c1cc(CN2CCCNCCNCCCNCC2)ccc1CN1CCCNCCNCCCNCC1` [AMD3100], the “chemotaxis of U937 cells toward CXCL12-expressing HT29 and HCT116 cells” value in test [1] (AMD3100 5 μg/ml, 3 hr) is “potently blocked migration”.

Take “CXCL12: alpha type 7.8 kDa CXC chemokine, here secreted by stably transfected HT29 and HCT116 cells”: the “ability to stimulate chemotaxis of U937 cells” value in test [1] (CXCL12 secreted from HT29 and HCT116 stable transfectants) was “functional”.

In the case of `Nc1ncn([C@H]2C[C@H](O)[C@@H](CO)O2)c(=O)n1` [5-aza, 5-aza-2′-deoxycytidine], the “extractable levels of Dnmt1” value on Dnmt1 is reported as “ablated”. For the same compound, the CXCL12 gene re-expression result in the test on CXCL12 mRNA expression (Caco2 cells (data not shown)) and in the test with CXCL12 mRNA expression (T84 cells (data not shown)) was “similarly fostered gene re-expression” in each case. Moreover, the “CXCL12 mRNA expression” value in the test with CXCL12 mRNA expression (HCT116 cells) and in the test with CXCL12 mRNA expression (HT29 cells) was “dose-dependently restored” each time. Also, in the test on CXCL12 mRNA expression (HT29 and HCT116 cells with 5-aza treatment), the “CXCR4 mRNA levels” value was “remained unchanged”. Also, in the test with CXCL12 mRNA expression (HT29 or HCT116 cells, 2.5 μM 5-aza for 3-6 days), the “time of maximal CXCL12 re-expression” value was determined as 5 days. For the same compound, the “CXCL12 protein expression by immunofluorescence” value in test [2] is reported as “detected”. The “methylation of the CXCL12 promoter” value with CXCL12 promoter (HCT116 cells, 2.5 μM 5-aza, 3 days) is “inhibited”; with CXCL12 promoter (HT29 cells (data not shown)) it was “inhibited”.
